Among the data in patent publication US20160075689A1, “POLYMERASE, ENDONUCLEASE, AND HELICASE INHIBITORS AND METHODS OF USING THEREOF” (THE BOARD OF TRUSTEES OF THE UNIVERSITY OF ARKANSAS, priority 2013, published 2016) are remaining activity values, retold here.

The target of the assay is T1, EndoG (Homo sapiens, UniProt Q14249).
T1 sequence (Q14249 49-297): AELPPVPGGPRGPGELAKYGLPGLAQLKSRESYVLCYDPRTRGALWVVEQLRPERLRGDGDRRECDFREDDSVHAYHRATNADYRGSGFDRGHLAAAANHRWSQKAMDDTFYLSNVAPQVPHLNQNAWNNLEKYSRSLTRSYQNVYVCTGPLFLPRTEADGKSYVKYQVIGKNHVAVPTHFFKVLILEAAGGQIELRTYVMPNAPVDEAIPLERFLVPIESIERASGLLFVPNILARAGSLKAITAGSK
Put plainly: High-throughput EndoG screening assay. Format: biochemical. The conditions noted are these: 20 min; compound 1 μM; read-out: % EndoG activity in the presence of the compound. As to the method: A reaction mixture was prepared in each well of a white 96-well plate (Costar, Corning, N.Y.) as follows: 0.25 μM Cy5.5-labeled oligonucleotide (described in US provisional patent filed Oct. 19, 2012, Ser. No. 61/716,097) 0.3 mM MgCl2, 10 mM Tris-HCl, pH 7.4, 1 μl DMSO containing 5 or 50 ng of test compound, and nuclease-free water for a total reaction volume of 100 μl. The background (negative control) and uninhibited EndoG samples were measured using DMSO only, or DMSO containing recombinant EndoG (4 μg/ml), respectively. After addition of EndoG, fluorescence intensity was kinetically measured on a Bio-Tek Synergy 4.0 plate reader at 37° C. and mean velocity (mRFU/min) within 20 min was automatically calculated by the plate reader. The background was subtracted prior to the calculation of EndoG activity (%). The percent of EndoG activity was calculated from the mean velocity of a compound divided by the mean velocity of DMSO with recombinant EndoG, and the obtained value multiplied by 100.

As for `COc1ccc2c(c1)c(C=C1C(=O)NC(=S)NC1=O)c(C)n2C(=O)c1cccc2ccccc12` [PNR-6-74], the remaining activity at 1 µM is 63.5%.

Consider `Cc1c(C=C2C(=O)NC(=S)NC2=O)c2ccccc2n1C(=O)c1ccc2ccccc2c1` [PNR-6-69], for which the remaining activity at 1 µM was found to be 31.6%.

Turning to `O=C1NC(=O)C(=Cc2cn(Cc3cccc4ccccc34)c3ccc(Br)cc23)C(=O)N1` [PNR-6-91], the remaining activity at 1 µM was found to be 12.7%. Take `O=C1NC(=O)C(=Cc2cn(Cc3ccc4ccccc4c3)c3ccc(Cl)cc23)C(=O)N1` [PNR-7-1]: the remaining activity at 1 µM turned out to be 14.8%.

On to `CN1C(=O)C(=Cc2cn(Cc3cccc(C(F)(F)F)c3)c3ccccc23)C(=O)N(C)C1=O` [PNR-7-16], for which the remaining activity at 1 µM stood at 17.2%.

Consider `COc1ccc2c(c1)c(C=C1C(=O)NC(=S)NC1=O)cn2Cc1cccc2ccccc12` [PNR-6-86], for which the remaining activity at 1 µM is 9.55%. As for `O=C1NC(=O)C(=Cc2cn(Cc3cccc4ccccc34)c3ccc(Cl)cc23)C(=O)N1` [PNR-6-88], the remaining activity at 1 µM came to 22.9%. On to `CN1C(=O)C(=Cc2cn(Cc3cccc4ccccc34)c3ccc(Cl)cc23)C(=O)N(C)C1=O` [PNR-6-90], for which the remaining activity at 1 µM is 35.9%. For the molecule `O=C1NC(=S)NC(=O)C1=Cc1cn(Cc2ccccc2Br)c2ccccc12` [PNR-7-8], the remaining activity at 1 µM came out at 58%. Regarding `O=C1NC(=S)NC(=O)C1=Cc1cn(Cc2cccc3ccccc23)c2ccc(Cl)cc12` [PNR-6-89], the remaining activity at 1 µM turned out to be 3.5%. `CN1C(=O)C(=Cc2cn(Cc3ccc4ccccc4c3)c3ccccc23)C(=O)N(C)C1=O` [PNR-6-99]: the remaining activity at 1 µM was determined as 71.7%. In the case of `Cc1c(C=C2C(=O)NC(=O)NC2=O)c2ccccc2n1C(=O)c1cccc2ccccc12` [PNR-6-64] it was 71.7%; in that of `CN1C(=O)C(=Cc2cn(Cc3cccc4ccccc34)c3ccc(Br)cc23)C(=O)N(C)C1=O` [PNR-6-93], 45.8%; in that of `COc1ccc2c(c1)c(C=C1C(=O)NC(=S)NC1=O)cn2Cc1cccc(C(F)(F)F)c1` [PNR-7-21], 28.8%. Regarding `Cc1c(C=C2C(=O)NC(=S)NC2=O)c2ccccc2n1Cc1ccc([N+](=O)[O-])cc1` [PNR-6-17], the remaining activity at 1 µM was 69.8%. In the case of `O=C1NC(=S)NC(=O)C1=Cc1cn(Cc2ccc3ccccc3c2)c2ccccc12` [PNR-6-98], the remaining activity at 1 µM was 15.7%. As to `O=C1NC(=S)NC(=O)C1=Cc1cn(Cc2cccc(C(F)(F)F)c2)c2ccc(Cl)cc12` [PNR-7-18], the remaining activity at 1 µM is 14.1%. In the case of `O=C1NC(=S)NC(=O)C1=Cc1cn(Cc2ccc3ccccc3c2)c2ccc(Cl)cc12` [PNR-7-2] it was 17.8%; in that of `COc1ccc2c(c1)c(C=C1C(=O)NC(=O)NC1=O)cn2Cc1cccc2ccccc12` [PNR-6-85], 52.7%; in that of `COc1ccc2c(c1)c(C=C1C(=O)NC(=S)NC1=O)c(C)n2Cc1cccc2ccccc12` [PNR-7-27], 19.1%. `CN1C(=O)C(=Cc2cn(C(=O)c3ccc4ccccc4c3)c3ccc(Cl)cc23)C(=O)N(C)C1=O` [PNR-6-60]: the remaining activity at 1 µM is 67.9%. Consider `COc1ccc2c(c1)c(C=C1C(=O)NC(=O)NC1=O)cn2Cc1ccc2ccccc2c1` [PNR-7-4], for which the remaining activity at 1 µM worked out at 24.7%.

On to `O=C1NC(=S)NC(=O)C1=Cc1cn(Cc2cccc3ccccc23)c2ccc(Br)cc12` [PNR-6-92], for which the remaining activity at 1 µM stood at 8.9%. In the case of `O=C1NC(=O)C(=Cc2cn(Cc3cccc(C(F)(F)F)c3)c3ccc(Cl)cc23)C(=O)N1` [PNR-7-17], the remaining activity at 1 µM stood at 57.1%.

Turning to `O=C1NC(=S)NC(=O)C1=Cc1cn(Cc2cccc3ccccc23)c2ccccc12` [PNR-6-83], the remaining activity at 1 µM worked out at 16%. In the case of `COc1ccc2c(c1)c(C=C1C(=O)NC(=S)NC1=O)cn2Cc1ccc2ccccc2c1` [PNR-7-5] it was 13.8%.

Take `Cc1c(C=C2C(=O)NC(=S)NC2=O)c2ccccc2n1C(=O)c1cccc2ccccc12` [PNR-6-65]: the remaining activity at 1 µM came to 65%.
